# From patent publication US20250025383A1, “EMOLLIENT COMPOSITION IN EMULSION FORM” (PIERRE FABRE MEDICAMENT, priority 2018, published 2025)
# Experiments:
# [1] = Measurement of consistency (TAXT+ texture analyser); assay type: physicochemical; conditions: ingredient added to glycerol/Vaseline/liquid paraffin emulsion
# Procedure: The measurement of consistency is carried out at room temperature (around 20° C.) in a 250 mL glass jar filled to 200 g. The measurement is performed using a TAXT+type texture analyser (Swantec). The consistency of the product is represented by the maximum resistance force of the probe in the product, which is directly proportional to the measured mass. The consistency value is expressed in g.
# • 250 g glass jar filled to 200 g • P25 steel cylinder
# • Pre-speed: 4 mm/s • Speed: 8 mm/s • Post-speed: 8 mm/s • Displacement: 20 mm • Triggering threshold: 5 g
# Fill the container (glass jar) without introducing air into the product.
# Tap the jar so as to pack down the cream and to obtain the smoothest surface possible.
# Maintain the jar closed […] before carrying out the measurement.
# [2] = preservative not tested (nt) in emulsion; cited from earlier work
Structure (SMILES),Effect on the consistency and/or the viscosity of the emulsion [1],Comments/other aspects [2]
CCCCC(CC)COCC(O)CO (stereo not shown) [ethylhexyl glycerin],fluidification of the formula,
OB(O)O [Boric acid],,irritant
"CCCCC(O)CO (stereo not shown) [1,2 hexanediol]",fluidification of the formula,
O.O.O.O.O.O.O.O.O.O.[Na+].[Na+].[O-]B1OB2OB([O-])OB(O1)O2 [Sodium borate],,irritant
